# Assay results from PMC9863562, “Design, Synthesis, and Biological Evaluation of 2-Mercaptobenzoxazole Derivatives as Potential Multi-Kinase Inhibitors” (Pharmaceuticals, 2023).
# What was measured:
# [1] = system: HepG2 cells (hepatocellular carcinoma); experiment: MTT cytotoxicity assay, HepG2; assay type: cell-based; conditions: Homo sapiens, HepG2, 24 h, 24 h treatment, read-out: In Vitro Cytotoxicity IC50 HepG2
# Text: The in vitro cytotoxicity for the final target compounds, 4(a–d), 5(a–f), and 6(a–b), was preliminarily evaluated via the MTT colorimetric assay against a panel of four human cell lines, namely, the hepatocellular carcinoma (HepG2), mammary gland (MCF-7), breast cancer (MDA-MB-231) and epithelioid cervix carcinoma (HeLa).
# The cytotoxicity of the target hybrids was examined by an MTT assay against HepG2, HeLa, MCF-7, and MDA-MB-231. At first, the RPMI-1640 medium with 10% fetal bovine serum was used to cultivate the cell lines. Then, antibiotics (penicillin (100 units/mL) and streptomycin (100 µg/mL)) were added in a 37 °C incubator in 5% CO2. The cell lines were seeded in a 96-well plate at a density of 1.0 × 10^4 cells/well at 37 °C under 5% CO2 for 48 h. After incubation, the cells were treated with various concentrations of the synthesized compounds and incubated for an additional 24 h. Following the drug treatment, 20 µL of 5 mg/mL MTT solution was added and incubated for 4 h. To dissolve the purple formazan that had formed, 100 µL dimethyl sulfoxide (DMSO) was added to each well. At a wavelength of 570 nm, the colorimetric assay was recorded and measured, using a plate reader BioTek EXL 800 (Agilent Technologies, Inc., Santa Clara, CA, USA). The percentage of relative cell viability was counted using the following formula (A570 of handled specimens/A570 of the unhandled specimen), multiplied by 100. The results of the cytotoxicity value were presented as the median growth inhibitory concentration (IC50) of the reagents compared to the control.
# [2] = system: Bcl-2; experiment: Apoptosis-related proteins in HepG2 cells (ELISA), Bcl-2; assay type: cell-based, human
# Text: Compound 6b was selected to investigate the apoptotic markers against the liver cancer cell line (HepG2). […] Typically, Bax, Bcl-2, and caspases contribute to the regulation of apoptotic signaling. Acting as an apoptotic activator (Bax) or inhibitor (Bcl-2), the Bcl-2 family of proteins plays a significant role in apoptosis. The caspase family comprises cysteine proteases that are classified as either executioner—caspase-3, or as initiators—caspase-9 and caspase-8 [40]. […] Nevertheless, considerable downregulation of the anti-apoptotic gene, Bcl-2 (0.26 folds), was described, leading to an increased expression ratio of Bax/Bcl-2 (1→20.53). The Bax/Bcl-2 gene expression ratio can serve as an early predictor for cancer in patients and is a sensitive monitor of cancer progression. […]
# The HepG2 cells were incubated in 96-well plates in triplicates and left for 24 h. […] The treated cells, along with control cells, were then incubated for another 24 h; then, caspases-3 and 9, BAX, and Bcl-2 levels were determined using ELISA assay kits; KHO1091 (Invitrogen^TM, Grand Island, NY, USA), EIA-4860 (DRU International, Inc., Mountainside, NJ, USA), EIA-4487 (DRU International INC., Mountainside, NJ, USA) and 99–0042 (Invitrogen^TM, Grand Island, NY, USA), respectively, according to their manufacturers’ procedures.
# [3] = biological target: T1, Human EGFR (Homo sapiens, UniProt P00533); experiment: In vitro EGFR enzyme assay (ELISA kit); assay type: biochemical
# T1 construct: purchased
# Protocol: Human CDK2, EGFR, HER2, and VEGFR-2 ELISA kits (Enzyme-Linked-Immunosorbent Serologic Assay) were used during this evaluation. At first, specified antibody proteins were added separately to a 96-well plate, then 0.1 mL of the standard solution or the evaluated molecule was added; these were then incubated for 2.5 h at RT. After rinsing, 100 μL of the ready-made biotin antibody protein was added, then incubated for one extra hour at room temperature and, finally, washed. Next, 100 μL of streptavidin solution was added, incubated at room temperature for 45 min, and then washed. Next, 100 μL of the TMB substrate reagent was added and incubated for 0.5 h at RT, followed by adding 50 μL of the stop solution. The absorbance of the ELISA plate was promptly measured at 450 nm using the ELISA plate reader.
# [4] = system: MDA-MB-231 cells (breast cancer); experiment: MTT cytotoxicity assay, MDA-MB-231; assay type: cell-based; conditions: Homo sapiens, 24 h treatment, read-out: In Vitro Cytotoxicity IC50 MDA-MB-231
# Protocol: (§1) After incubation, the cells were treated with various concentrations of the synthesized compounds and incubated for an additional 24 h. Following the drug treatment, 20 µL of 5 mg/mL MTT solution was added and incubated for 4 h. To dissolve the purple formazan that had formed, 100 µL dimethyl sulfoxide (DMSO) was added to each well. […] The percentage of relative cell viability was counted using the following formula (A570 of handled specimens/A570 of the unhandled specimen), multiplied by 100.
# [5] = system: HeLa cells (epithelioid cervix carcinoma); experiment: MTT cytotoxicity assay, HeLa; assay type: cell-based; conditions: Homo sapiens, 24 h treatment, read-out: In Vitro Cytotoxicity IC50 Hela
# Protocol: as §1
# [6] = system: HepG2 cells; experiment: Cell-cycle flow cytometry analysis (PI staining); assay type: cell-based, human; conditions: HepG2, 6b at 6.83 μM, 24 h
# Protocol: Programmed cell death is a fundamental cellular program that is inherent in every cell of the human body. One of the most extensively studied forms of programmed cell death is apoptosis, which plays an important role during the various physiological processes and is involved in a variety of pathological conditions. The HepG2 cells were exposed to compound 6b for 24 h and the cell cycle was monitored via flow cytometry; the results are reported in Table 5.
# To detect the effect of the synthesized compound, 6b, on cell cycle distribution, flow cytometry analysis was carried out, utilizing propidium iodide (PI) staining. The kit used for the cell cycle flow cytometry analysis was the K101-100 Annexin V-FITC Apoptosis Detection Kit (BioVision, Mountain View, CA, USA). […] Then, the treated cells were fixed in 70% ethanol for 12 h at 4 °C. Following that, the cells were rinsed with cold PBS, incubated with 100 μL RNase A for 0.5 h at 37 °C, and stained with propidium iodide (400 μL) in the dark at RT for an extra 0.5 h. The stained cells were determined, utilizing Epics XLMCL™ flow cytometer equipment (Beckman Coulter, Apeldoorn, Netherlands), then the results were collected and analyzed with the Flowing software (version 2.5.1, Turku Center for Biotechnology, Turku, Finland).
# [7] = system: MCF-7 cells (mammary gland cancer); experiment: MTT cytotoxicity assay, MCF-7; assay type: cell-based; conditions: Homo sapiens, MCF7, 24 h treatment, read-out: In Vitro Cytotoxicity IC50 MCF-7
# Protocol: as §1
# T1 sequence (P00533 25-1210): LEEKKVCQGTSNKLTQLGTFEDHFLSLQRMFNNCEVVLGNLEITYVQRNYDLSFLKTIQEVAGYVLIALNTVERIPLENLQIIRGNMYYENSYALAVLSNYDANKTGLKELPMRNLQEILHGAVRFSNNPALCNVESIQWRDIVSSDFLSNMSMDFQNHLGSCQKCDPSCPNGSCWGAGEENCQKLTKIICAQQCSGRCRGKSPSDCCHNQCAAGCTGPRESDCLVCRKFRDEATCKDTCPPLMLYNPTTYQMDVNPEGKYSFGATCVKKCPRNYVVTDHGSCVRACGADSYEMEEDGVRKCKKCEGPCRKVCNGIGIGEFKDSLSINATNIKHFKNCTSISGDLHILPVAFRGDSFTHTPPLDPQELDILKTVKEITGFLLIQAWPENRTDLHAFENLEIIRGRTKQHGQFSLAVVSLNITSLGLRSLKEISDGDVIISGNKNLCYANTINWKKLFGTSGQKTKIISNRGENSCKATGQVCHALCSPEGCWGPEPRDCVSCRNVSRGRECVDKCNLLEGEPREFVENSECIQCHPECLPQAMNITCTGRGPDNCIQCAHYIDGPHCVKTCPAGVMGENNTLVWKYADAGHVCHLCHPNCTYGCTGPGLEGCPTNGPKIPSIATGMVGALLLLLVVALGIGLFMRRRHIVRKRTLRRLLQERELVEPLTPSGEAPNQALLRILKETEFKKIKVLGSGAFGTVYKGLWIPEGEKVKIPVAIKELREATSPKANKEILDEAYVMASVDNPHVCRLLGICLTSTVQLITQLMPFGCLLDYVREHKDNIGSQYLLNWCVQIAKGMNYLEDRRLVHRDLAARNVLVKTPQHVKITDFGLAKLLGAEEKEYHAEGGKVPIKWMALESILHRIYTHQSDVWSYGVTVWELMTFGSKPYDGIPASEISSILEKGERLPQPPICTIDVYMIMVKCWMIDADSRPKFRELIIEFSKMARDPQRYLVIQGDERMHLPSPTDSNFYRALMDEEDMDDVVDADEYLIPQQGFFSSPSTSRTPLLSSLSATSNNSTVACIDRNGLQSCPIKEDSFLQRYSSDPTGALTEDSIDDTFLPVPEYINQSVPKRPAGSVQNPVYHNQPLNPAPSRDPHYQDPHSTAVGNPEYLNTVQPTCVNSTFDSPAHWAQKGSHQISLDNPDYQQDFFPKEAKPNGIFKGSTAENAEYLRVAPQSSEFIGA
smiles,measurement,setting,value
"O=C(CSc1nc2ccccc2o1)NN=Cc1ccc[nH]1 (mixture of isomers) [Compound 6b, (E/Z)-N′-((1H-pyrrol-2-yl)methylene)-2-(benzo[d]oxazol-2-ylthio)acetohydrazide]",IC50,[1],~6.83 µM
same,Bcl-2 Expression,"[2]; 24 h treatment, ELISA",2.822 ± 0.21 pg/mL
same,Bcl-2 Fold,[2]; versus control HepG2 = 1,0.26 fold
same,IC50,[3],0.279 ± 0.017 µM
same,IC50,[4],2.14 ± 0.1 µM
same,IC50,[5],5.18 ± 0.5 µM
same,%G0–G1,[6],40.37%
same,%G2/M,[6],31.26%
same,%Pre–G1,[6],16.84%
same,%S,[6],28.37%
same,IC50,[7],3.64 ± 0.2 µM
